Experimental data reported in PubChem BioAssay (NCI).
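Following 48 hours of exposure in 96-well plates, responses at five concentrations were used to interpolate endpoints linearly. GI50 is the concentration that inhibits growth by half. At the TGI there is no net growth.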

Key:
Experiment in all cases: growth of human tumour cells (NCI), 48 h
RPMI-8226 leukemia = test system: RPMI-8226 leukemia
HL-60(TB) leukemia = test system: HL-60(TB) leukemia
HCT-15 colon = test system: HCT-15 colon
CCRF-CEM leukemia = test system: CCRF-CEM leukemia
MCF7 breast = test system: MCF7 breast
UO-31 renal = test system: UO-31 renal
MALME-3M melanoma = test system: MALME-3M melanoma
HOP-62 NSCLC = test system: HOP-62 NSCLC
NCI-H460 lung = test system: NCI-H460 lung
OVCAR-4 ovarian = test system: OVCAR-4 ovarian
U251 CNS = test system: U251 CNS
RXF 393 renal = test system: RXF 393 renal
A549 NSCLC = test system: A549 NSCLC
UACC-62 melanoma = test system: UACC-62 melanoma
A498 renal = test system: A498 renal
SF-539 CNS = test system: SF-539 CNS
M14 melanoma = test system: M14 melanoma
786-0 renal = test system: 786-0 renal
OVCAR-3 ovarian = test system: OVCAR-3 ovarian
HT29 colon = test system: HT29 colon
MOLT-4 leukemia = test system: MOLT-4 leukemia
TK-10 renal = test system: TK-10 renal
SK-MEL-28 melanoma = test system: SK-MEL-28 melanoma
UACC-257 melanoma = test system: UACC-257 melanoma
SK-MEL-5 melanoma = test system: SK-MEL-5 melanoma
EKVX NSCLC = test system: EKVX NSCLC
HOP-92 NSCLC = test system: HOP-92 NSCLC
OVCAR-5 ovarian = test system: OVCAR-5 ovarian
CAKI-1 renal = test system: CAKI-1 renal
SF-268 CNS = test system: SF-268 CNS
BT-549 breast = test system: BT-549 breast
COLO 205 colon = test system: COLO 205 colon
K-562 leukemia = test system: K-562 leukemia
OVCAR-8 ovarian = test system: OVCAR-8 ovarian
SNB-75 CNS = test system: SNB-75 CNS
NCI-H226 lung = test system: NCI-H226 lung
HS 578T breast = test system: HS 578T breast
SF-295 CNS = test system: SF-295 CNS
IGROV1 ovarian = test system: IGROV1 ovarian
LOX IMVI melanoma = test system: LOX IMVI melanoma
HCT-116 colon = test system: HCT-116 colon
PC-3 prostate = test system: PC-3 prostate
KM12 colon = test system: KM12 colon
ACHN renal = test system: ACHN renal
NCI-H23 lung = test system: NCI-H23 lung
SK-MEL-2 melanoma = test system: SK-MEL-2 melanoma
T-47D breast = test system: T-47D breast
NCI/ADR-RES ovarian = test system: NCI/ADR-RES ovarian
MDA-MB-231 breast = test system: MDA-MB-231 breast
SK-OV-3 ovarian = test system: SK-OV-3 ovarian
SN12C renal = test system: SN12C renal
SR leukemia = test system: SR leukemia
DU-145 prostate = test system: DU-145 prostate
MDA-MB-435 = test system: MDA-MB-435
SNB-19 CNS = test system: SNB-19 CNS
SW-620 colon = test system: SW-620 colon

## COc1ccc2c(c1)OCC1c3cc(O)ccc3OC21 (configuration not stated)
RPMI-8226 leukemia
  GI50: 32.8 µM
  TGI: > 100 µM
HL-60(TB) leukemia
  GI50: 3.16 µM
  TGI: 27.3 µM
HCT-15 colon
  GI50: 40.6 µM
  TGI: > 100 µM
CCRF-CEM leukemia
  GI50: 25.1 µM
  TGI: > 100 µM
MCF7 breast
  GI50: 12.8 µM
  TGI: 86.4 µM
UO-31 renal
  GI50: 24.3 µM
  TGI: > 100 µM
MALME-3M melanoma
  GI50: 60.2 µM
  TGI: > 100 µM
HOP-62 NSCLC
  GI50: > 100 µM
  TGI: > 100 µM
NCI-H460 lung
  GI50: 25 µM
  TGI: > 100 µM
OVCAR-4 ovarian
  GI50: 28.1 µM
  TGI: > 100 µM
U251 CNS
  GI50: 54.9 µM
  TGI: > 100 µM
RXF 393 renal
  GI50: 72.6 µM
  TGI: > 100 µM
A549 NSCLC
  GI50: 60.9 µM
  TGI: > 100 µM
UACC-62 melanoma
  GI50: 35.9 µM
  TGI: > 100 µM
A498 renal
  GI50: 40.2 µM
  TGI: > 100 µM
SF-539 CNS
  GI50: 54.5 µM
  TGI: > 100 µM
M14 melanoma
  GI50: 72.5 µM
  TGI: > 100 µM
786-0 renal
  GI50: 78.9 µM
  TGI: > 100 µM
OVCAR-3 ovarian
  GI50: 27 µM
  TGI: > 100 µM
HT29 colon
  GI50: 47.5 µM
  TGI: > 100 µM
MOLT-4 leukemia
  GI50: 35.4 µM
  TGI: > 100 µM
TK-10 renal
  GI50: 38.9 µM
  TGI: > 100 µM
SK-MEL-28 melanoma
  GI50: > 100 µM
  TGI: > 100 µM
UACC-257 melanoma
  GI50: 78.3 µM
  TGI: > 100 µM
SK-MEL-5 melanoma
  GI50: 33 µM
  TGI: > 100 µM
EKVX NSCLC
  GI50: 27.8 µM
  TGI: > 100 µM
HOP-92 NSCLC
  GI50: 39.6 µM
  TGI: > 100 µM
OVCAR-5 ovarian
  GI50: 39.5 µM
  TGI: > 100 µM
CAKI-1 renal
  GI50: 32.5 µM
  TGI: > 100 µM
SF-268 CNS
  GI50: 11 µM
  TGI: 74 µM
BT-549 breast
  GI50: 39 µM
  TGI: > 100 µM
COLO 205 colon
  GI50: 32.7 µM
  TGI: > 100 µM
K-562 leukemia
  GI50: 63.5 µM
  TGI: > 100 µM
OVCAR-8 ovarian
  GI50: > 100 µM
  TGI: > 100 µM
SNB-75 CNS
  GI50: 34 µM
  TGI: > 100 µM
NCI-H226 lung
  GI50: 18.6 µM
  TGI: > 100 µM
HS 578T breast
  GI50: 41.2 µM
  TGI: > 100 µM
SF-295 CNS
  GI50: 9.91 µM
  TGI: 90.9 µM
IGROV1 ovarian
  GI50: 36 µM
  TGI: 99.4 µM
LOX IMVI melanoma
  GI50: 42.1 µM
  TGI: > 100 µM
HCT-116 colon
  GI50: 51.4 µM
  TGI: > 100 µM
PC-3 prostate
  GI50: 34.4 µM
  TGI: > 100 µM
KM12 colon
  GI50: 38.7 µM
  TGI: > 100 µM
ACHN renal
  GI50: 35.8 µM
  TGI: > 100 µM
NCI-H23 lung
  GI50: 30.1 µM
  TGI: > 100 µM
SK-MEL-2 melanoma
  GI50: > 100 µM
  TGI: > 100 µM
T-47D breast
  GI50: 16.2 µM
  TGI: 65.4 µM
NCI/ADR-RES ovarian
  GI50: 33.2 µM
  TGI: > 100 µM
MDA-MB-231 breast
  GI50: 13.7 µM
  TGI: 92.2 µM
SK-OV-3 ovarian
  GI50: 63.2 µM
  TGI: > 100 µM
SN12C renal
  GI50: 73.3 µM
  TGI: > 100 µM
SR leukemia
  GI50: 46.3 µM
  TGI: > 100 µM
DU-145 prostate
  GI50: 75.8 µM
  TGI: > 100 µM
MDA-MB-435
  GI50: 44.8 µM
  TGI: > 100 µM
SNB-19 CNS
  GI50: 52.1 µM
  TGI: > 100 µM
SW-620 colon
  GI50: > 100 µM
  TGI: > 100 µM
